In brackets after ≈: the same amount, converted by molar mass. Where a name gives a salt, the structure may show the parent alone. Read-outs that look alike come from different tables or passages of the source.
How the values were obtained:
Format in all cases: cell-based
[1] = test system: Aspergillus fumigatus T33439 (ATCC MYA-3626); assay: Fungal MIC Protocol, Aspergillus fumigatus; conditions: for MIC: Aspergillus fumigatus, read-out: MIC Aspergillus fumigatus 3626
Protocol: (§1) Fungal MIC Protocol: RPMI/MOPS media (Roswell Park Memorial Institute/3-morpholinopropane-1-sulfonic acid media) is prepared by dissolving 8.4 grams RPMI […] (Sigma cat #R1383), 34.52 grams MOPS buffer (Sigma cat #M3.183) and 2 […] glucose in 900 mL deionized water. The pH is adjusted to 7.0 with NaOH and filter sterilized. 0.1 mL, of a stock spore suspension (or loop from frozen stock) is inoculated to a 75 mL tissue culture flask (Falcon cat #353136) containing 50 mL of Potato Dextrose Agar (PDA, 24 grams PD broth (Fisher cat #DF 0549179), 20 grams agar (Fisher cat #BP 1423500) per liter water). Aspergillus and Fusarium strains are grown at 35° C. and Mucor strains are grown at room temperature for 3-5 days. Spores are harvested by flooding the flask with 5 mL phosphate buffered saline (PBS) pH 7.4+0.1% Tween-20 and several glass beads (Fisher cat #S800243) are added to aid in agitation. The supernatant is removed and the OD530 of a 1:100 dilution is measured. Spores are diluted in RPMI/MOPS to a final OD530 of 0.002 for Aspergillus and an OD530 of 0.005 for Fusarium and Mucor. The final concentration of spores is approximately 2×10^4 cfu/mL. Test compound(s) are diluted to 200 ug/mL in RPMI/MOPS ([…]). Ten (10) serial dilutions are prepared with RPMI/MOPS in a 96-well round bottom plate (Fisher cat #353136). For Mucor strains a sterile flat-bottom 96-well plate is used. 50 μl of compound dilutions in duplicate are added to a sterile 96-well round bottom plate. 50 ul of diluted spores are added to the compound-containing plates. Control wells include 1) compound but no cells and 2) spores but no compound. Mix the plates gently by hand, place in ziplock bags and
(§2) incubate at 35° C. for 48 hours. […]

[2] = test system: Aspergillus flavus AFL1 (ATCC MYA-3631); assay: Fungal MIC Protocol, Aspergillus flavus; conditions: for MIC: Aspergillus flavus, read-out: MIC Aspergillus flavus 3631
Protocol: as §1, §2

[3] = test system: Mucor circinelloides 1463(62) (ATCC 26759); assay: Fungal MIC Protocol, Mucor circinelloides (MIC-50); conditions: for MIC50: Mucor circinelloides, read-out: MIC-50 Mucorales circinelloides 26579
Protocol: as §1
(§3) incubate at 35° C. for 48 hours. Score the MIC visually (lowest concentration of compound showing >50% growth inhibition) using an inverted mirror.

[4] = test system: Fusarium solani (ATCC 58877); assay: Fungal MIC Protocol, Fusarium solani; conditions: for MIC: Fusarium solani, read-out: MIC Fusarium solani 58877
Protocol: as §1, §2

[5] = test system: Fusarium falciforme FS1 (ATCC MYA-3636); assay: Fungal MIC Protocol, Fusarium falciforme; conditions: for MIC: Fusarium falciforme, read-out: MIC Fusarium falciforme 3636
Protocol: as §1, §2

Candida albicans GDH2346 = assay: Candida Minimal Inhibitory Concentration (MIC); conditions: 50% growth inhibition at 48 hours; for MIC50: Candida albicans, GDH2346, read-out: MIC-50 Candida albicans GDH2346
Protocol: Candida Minimal Inhibitory Concentration (MIC): RPMI/MOPS media is prepared by dissolving 8.4 g RPMI 1640, 34.52 g MOPS buffer and 2 g glucose in 900 mL water. The pH is adjusted to 7.0 with NaOH. The total volume is brought to 1 L and the resulting solution is filter sterilized. The Candida stock is streaked on a Yeast extract Peptone Dextrose (YPD) agar plate and grown at 35° C. for isolation of single colonies. Compounds of the disclosure are diluted to 200 μg/mL in RPMI/MOPS (4.8 ul of 10 mg/mL DMSO stock in 240 ul media). Ten (10) 1:2 serial dilutions are prepared in RPMI/MOPS in a 96-well round bottom plate. Fifty (50) μl of compound dilutions are transferred in duplicate to a sterile tissue culture-treated 96-well flat-bottom, black-sided polypropylene plate. A single colony of Candida from the YPD plate is re-suspended in 5 mL phosphate buffered saline (BS) and optical density (OD) at 600 nm is measured. The suspension is adjusted to OD=1.0 and a 1:1000 dilution is prepared in RPMI/MOPS. Fifty (50) ul aliquots of the diluted yeast are added to the plates containing 50 μL of compound to all wells except 12E-H. Control wells include: 12 A-D cells, no compound and 12 E-H no cells, no compound. The plates are mixed gently by hand and placed in Ziplok bags in a 35° C. incubator. The OD600 is measured at 24 and 48 hours.

[6] = test system: Mucor ramosissimus 057718 (ATCC 90286); assay: Fungal MIC Protocol, Mucor ramosissimus (MIC-50); conditions: for MIC50: Mucor ramosissimus, read-out: MIC-50 Mucorales ramosissimus 90286
Protocol: as §1, §3

[7] = 100% growth inhibition at 48 hours
[8] = 50% growth inhibition at 48 hours

Row | Compound | MIC [1, 7] | MIC [2, 7] | MIC50 (Candida albicans GDH2346) | further results
1 | 4,4-(4,4-(4-Cyclohexyl-4H-1,2,4-triazole-3,5-diyl)bis(4,1-phenylene))bis (5,6-dihydropyridine-1(2H)-carboximidamide) [Example 56] | – | – | – | MIC Aspergillus fumigatus 3626 [1, 7]: 0.39 µg·mL; MIC Aspergillus flavus 3631 [2, 7]: 0.39 µg·mL; MIC-50 Mucorales circinelloides 26579 [3, 8]: 0.39 µg/mL; MIC Fusarium solani 58877 [4, 7]: <0.1 µg·mL; MIC Fusarium falciforme 3636 [5, 7]: <0.1 µg·mL; MIC-50 Candida albicans GDH2346 (Candida albicans GDH2346): 0.78 µg/mL; MIC-50 Mucorales ramosissimus 90286 [6, 8]: 1.56 µg/mL
2 | Cc1c(C2=CCN(C(=N)N)CC2)ccc(-c2nnc(-c3ccc(C4=CCN(C(=N)N)CC4)cc3)o2)c1C [Example 44, 4-(4-(5-(4-(1-Carbamimidoyl-1,2,3,6-tetrahydropyridin-4-yl)-2,3-dimethylphenyl)-1,3,4-oxadiazol-2-yl)phenyl)-5,6-dihydropyridine-1(2H)-carboximidamide] | 6.25 µg/mL (≈ 12.6 µM) | 1.56 µg/mL (≈ 3.14 µM) | 0.39 µg/mL (≈ 0.785 µM) | –
3 | Cc1cc(C2=CCN(C(=N)N)CC2)cc(C)c1-c1nnc(-c2ccc(C3=CCN(C(=N)N)CC3)cc2)o1 [Example 45, 4-(4-(5-(4-(1-Carbamimidoyl-1,2,3,6-tetrahydropyridin-4-yl)-2,6-dimethylphenyl)-1,3,4-oxadiazol-2-yl)phenyl)-5,6-dihydropyridine-1(2H)-carboximidamide] | 0.39 µg/mL (≈ 0.785 µM) | 0.39 µg/mL (≈ 0.785 µM) | 0.39 µg/mL (≈ 0.785 µM) | –
4 | N=C(N)N1CC=C(c2ccc(-c3nnc(-c4ccc(C5=CCN(C(=N)N)CC5)cc4C(F)(F)F)o3)cc2)CC1 [Example 46, 4-(4-(5-(4-(1-Carbamimidoyl-1,2,3,6-tetrahydropyridin-4-yl)-2-(trifluoromethyl)phenyl)-1,3,4-oxadiazol-2-yl)phenyl)-5,6-dihydropyridine-1(2H)-carboximidamide] | 1.56 µg/mL (≈ 2.91 µM) | 1.56 µg/mL (≈ 2.91 µM) | 0.2 µg/mL (≈ 0.373 µM) | –
5 | CNc1cc(C2=CCN(C(=N)N)CC2)ccc1-c1nnc(-c2ccc(C3=CCN(C(=N)N)CC3)cc2F)o1 [Example 47a, 4-(4-(5-(4-(1-Carbamimidoyl-1,2,3,6-tetrahydropyridin-4-yl)-2-(methylamino)phenyl)-1,3,4-oxadiazol-2-yl)-3-fluorophenyl)-5,6-dihydropyridine-1(2H)-carboximidamide] | 1.56 µg/mL (≈ 3.03 µM) | 0.39 µg/mL (≈ 0.756 µM) | 0.78 µg/mL (≈ 1.51 µM) | –
6 | CNc1cc(C2=CCN(C(=N)N)CC2)ccc1-c1nnc(-c2ccc(C3=CCN(C(=N)N)CC3)cc2NC)o1 [Example 47b, 4,4′-(4,4′-(1,3,4-Oxadiazole-2,5-diyl)bis(3-(methylamino)-4,1-phenylene))bis(5,6-dihydropyridine-1(2H)-carboximidamide)] | – | – | – | MIC Aspergillus fumigatus 3626 [1, 7]: 0.78 µg·mL; MIC Aspergillus flavus 3631 [2, 7]: 0.78 µg·mL; MIC-50 Candida albicans GDH2346 (Candida albicans GDH2346): 1.56 µg/mL (≈ 2.96 µM)
7 | N=C(N)N1CCN(c2ccc(-c3nnc(-c4ccc(N5CCN(C(=N)N)CC5)cc4)o3)cc2)CC1 [Example 51, 4,4′-(4,4′-(1,3,4-Oxadiazole-2,5-diyl)bis(4,1-phenylene)) dipiperazine-1-carboximidamide] | 0.78 µg/mL (≈ 1.64 µM) | 6.25 µg/mL (≈ 13.2 µM) | 3.13 µg/mL (≈ 6.6 µM) | –
8 | N=C(N)N1CCC(c2ccc(-c3nnc(-c4ccc(C5CCN(C(=N)N)CC5)cc4)o3)cc2)CC1 [Example 52, 4,4′-(4,4′-(1,3,4-Oxadiazole-2,5-diyl)bis(4,1-phenylene)) dipiperidine-1-carboximidamide] | 50 µg/mL (≈ 106 µM) | 6.25 µg/mL (≈ 13.2 µM) | 4.3 µg/mL (≈ 9.1 µM) | –
9 | Cc1cc(C2CCN(C(=N)N)CC2)ccc1-c1nnc(-c2ccc(C3CCN(C(=N)N)CC3)cc2)o1 [Example 53, 4-(4-(5-(4-(1-Carbamimidoylpiperidin-4-yl)-2-methylphenyl)-1,3,4-oxadiazol-2-yl)phenyl)piperidine-1-carboximidamide] | 25 µg/mL (≈ 51.4 µM) | 6.25 µg/mL (≈ 12.8 µM) | 1.56 µg/mL (≈ 3.21 µM) | –
10 | Cn1nc(-c2ccc(N3CCN(C(=N)N)CC3)cc2)cc1-c1ccc(N2CCN(C(=N)N)CC2)cc1 [Example 55, 4,4′-(4,4′-(1-Methyl-1H-pyrazole-3,5-diyl)bis(4,1-phenylene)) dipiperazine-1-carboximidamide] | 0.78 µg/mL (≈ 1.6 µM) | 3.13 µg/mL (≈ 6.43 µM) | 1.56 µg/mL (≈ 3.21 µM) | –
11 | Cc1cc(-c2nnc(-c3ccc(N4CCN(C(=N)N)CC4)cc3)o2)ccc1N1CCN(C(=N)N)CC1 [Example 60, 4-(4-{5-[4-(4-Carbamimidoylpiperazin-1-yl)-3-methylphenyl]-1,3,4-oxadiazol-2-yl}phenyl)piperazine-1-carboximidamide] | 25 µg/mL (≈ 51.2 µM) | 25 µg/mL (≈ 51.2 µM) | 1.56 µg/mL (≈ 3.19 µM) | –
12 | Cc1cc(N2CCN(C(=N)N)CC2)ccc1-c1nnc(-c2ccc(N3CCN(C(=N)N)CC3)cc2)o1 [Example 61, 4-(4-{5-[4-(4-Carbamimidoylpiperazin-1-yl)-2-methylphenyl]-1,3,4-oxadiazol-2-yl}phenyl)piperazine-1-carboximidamide] | 0.78 µg/mL (≈ 1.6 µM) | 3.13 µg/mL (≈ 6.41 µM) | 1.56 µg/mL (≈ 3.19 µM) | –
13 | COCCOCCn1c(-c2ccc(C3=CCN(C(=N)N)CC3)cc2F)nnc1-c1ccc(C2=CCN(C(=N)N)CC2)cc1F [Example 81, 4-(4-{5-[4-(1-carbamimidoyl-1,2,3,6-tetrahydropyridin-4-yl)-2-fluorophenyl]-4-[2-(2-methoxyethoxy)ethyl]-4H-1,2,4-triazol-3-yl}-3-fluorophenyl)-1,2,3,6-tetrahydropyridine-1-carboximidamide] | 0.39 µg/mL (≈ 0.644 µM) | 0.78 µg/mL (≈ 1.29 µM) | – | MIC50 ([3]; ATCC26759, 50% growth inhibition at 48 hours): 1.56 µg/mL (≈ 2.58 µM); MIC ([4]; ATCC58877, 100% growth inhibition at 48 hours): 0.1 µg/mL (≈ 0.165 µM); MIC [5, 7]: 0.1 µg/mL (≈ 0.165 µM); MIC50 ([6]; ATCC90286, 50% growth inhibition at 48 hours): 6.25 µg/mL (≈ 10.3 µM)
14 | CC(CO)n1c(-c2ccc(C3=CCN(C(=N)N)CC3)cc2F)nnc1-c1ccc(C2=CCN(C(=N)N)CC2)cc1F (stereo not shown) [Example 83, 4-(4-{5-[4-(1-carbamimidoyl-1,2,3,6-tetrahydropyridin-4-yl)-2-fluorophenyl]-4-(1-hydroxypropan-2-yl)-4H-1,2,4-triazol-3-yl}-3-fluorophenyl)-1,2,3,6-tetrahydropyridine-1-carboximidamide hydrochloride] | – | – | – | MIC ([1]; 48 h): 0.39 µg/mL; MIC ([2]; 48 h): 0.78 µg/mL; MIC50 ([3]; ATCC26759, 48 h): 1.56 µg/mL; MIC ([4]; ATCC58877, 48 h): 0.2 µg/mL; MIC ([5]; 48 h): 0.2 µg/mL; MIC50 ([6]; ATCC90286, 48 h): 12.5 µg/mL

Source: patent publication US20240018121A1, “NOVEL HETEROAROMATIC COMPOUNDS EXHIBITING ANTIFUNGAL ACTIVITY AND THEIR METHOD OF USE” (FOX CHASE CHEMCIAL DIVERSITY CENTER, INC., priority 2020, published 2024)
